This note sets out measurements from ChEMBL document CHEMBL1155891, “Synthesis and antiviral evaluation of some new pyrazole and fused pyrazolopyrimidine derivatives” (Bioorg Med Chem, 2008).

The structures appear in SMILES notation. Calls of active or inactive are those of the source. No cut-off for these calls is given here.

For experiment [1], the system named is Human alphaherpesvirus 1. In words: Antiviral activity against HSV1 10 ug/10^5 cells by plaque infectivity assay. The experiment is classed as functional, organism-based.
For experiment [2], the system named is Human alphaherpesvirus 1. Nature of the experiment: Antiviral activity against HSV1 20 ug/10^5 cells by plaque infectivity assay. The experiment is classed as functional, organism-based.
For experiment [3], the system named is Hepatovirus A. In words: Antiviral activity against HAV 20 ug/10^5 cells by plaque infectivity assay.
Experiment [4] has as its system Hepatovirus A. Nature of the experiment: Antiviral activity against HAV 10 ug/10^5 cells by plaque infectivity assay. The experiment is classed as functional, organism-based.

As to `COCCSc1ncnc2c1cnn2-c1ncnc2sc3c(c12)-c1ccccc1CC3`, the outcome in experiment [1] and in experiment [2] was Active. Take `CCOC(=O)c1cnn(-c2ncnc3sc4c(c23)-c2ccccc2CC4)c1N`: the result in experiment [3] was Active. As for `COC(CSc1ncnc2c1cnn2-c1ncnc2sc3c(c12)-c1ccccc1CC3)OC`, the result in experiment [1] was Active. As for `N#Cc1cnn(-c2ncnc3sc4c(c23)-c2ccccc2CC4)c1NC(=S)NC(=O)c1ccccc1`, the outcome in experiment [1], in experiment [2] and in experiment [4] was Active. For the molecule `N#Cc1cnn(-c2ncnc3sc4c(c23)-c2ccccc2CC4)c1N`, the outcome in experiment [4] and in experiment [3] was Active.
